Key:
[1] = molecular target: T1, Transient receptor potential cation channel subfamily A member 1 (Homo sapiens, UniProt O75762); assay: Agonist activity at TRPA1 (unknown origin) by calcium imaging assay relative to allyl isothiocyanate; parameters: concentration or dose not given beside the values; details: filed as agonist
[2] = molecular target: T1, Transient receptor potential cation channel subfamily A member 1; assay: Agonist activity at TRPA1 (unknown origin) by calcium imaging assay

T1 sequence (O75762 whole entry): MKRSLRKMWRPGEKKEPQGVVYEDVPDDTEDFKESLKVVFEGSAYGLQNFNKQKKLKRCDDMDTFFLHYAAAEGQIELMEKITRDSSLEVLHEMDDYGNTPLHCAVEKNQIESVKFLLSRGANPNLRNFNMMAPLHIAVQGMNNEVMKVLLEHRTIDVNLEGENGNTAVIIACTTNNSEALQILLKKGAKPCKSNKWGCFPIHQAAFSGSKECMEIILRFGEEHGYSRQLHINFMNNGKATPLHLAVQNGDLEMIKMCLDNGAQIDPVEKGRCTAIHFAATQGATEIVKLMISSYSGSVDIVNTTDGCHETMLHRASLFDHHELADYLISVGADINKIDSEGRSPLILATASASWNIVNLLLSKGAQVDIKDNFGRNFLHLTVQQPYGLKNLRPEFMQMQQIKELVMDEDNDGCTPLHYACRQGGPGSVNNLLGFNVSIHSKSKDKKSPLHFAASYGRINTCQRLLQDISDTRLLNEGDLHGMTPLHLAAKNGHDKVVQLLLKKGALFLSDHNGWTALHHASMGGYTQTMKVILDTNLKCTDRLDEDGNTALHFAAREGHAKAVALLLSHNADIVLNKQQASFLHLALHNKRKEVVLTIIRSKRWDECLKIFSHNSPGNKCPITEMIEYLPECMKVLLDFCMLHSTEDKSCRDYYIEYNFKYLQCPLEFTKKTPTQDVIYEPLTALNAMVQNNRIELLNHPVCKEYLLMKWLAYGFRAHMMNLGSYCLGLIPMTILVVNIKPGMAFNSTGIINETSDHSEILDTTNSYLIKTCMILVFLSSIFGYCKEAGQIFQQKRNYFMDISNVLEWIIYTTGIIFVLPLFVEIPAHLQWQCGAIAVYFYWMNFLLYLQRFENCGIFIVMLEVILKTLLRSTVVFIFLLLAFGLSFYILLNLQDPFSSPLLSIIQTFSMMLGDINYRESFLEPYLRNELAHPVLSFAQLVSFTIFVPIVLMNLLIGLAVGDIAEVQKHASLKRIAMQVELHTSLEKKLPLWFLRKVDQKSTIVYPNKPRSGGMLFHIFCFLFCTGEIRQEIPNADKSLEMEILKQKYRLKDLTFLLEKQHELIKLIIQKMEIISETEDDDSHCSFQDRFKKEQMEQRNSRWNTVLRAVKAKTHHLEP

SMILES	Activity [1] [%]	EC50 [2] [µM]
C=CCc1ccc(O)c(OC)c1 [EUGENOL]	122	116
C=Cc1ccc(O)c(OC)c1	50	82.8
Cc1ccc(O)c(O)c1	107	11.7
Cc1cccc(O)c1C	82	86
c1ccc2[nH]ccc2c1 [INDOLE]	111	75.2
Oc1ccccc1Cl [2-CHLOROPHENOL]	54	501
Cc1ccc(C(C)C)c(O)c1	140	–
CCc1ccc(O)c(OC)c1	74	101
Cc1cccc(O)c1O	151	2.83
COc1cc(C(=O)C(O)CO)ccc1O (stereo not drawn)	63	–
C/C=C/c1ccc(O)c(OC)c1	139	149
COc1cc(O)c(CC=C(C)C)c2c1C(=O)CC(c1ccc(O)cc1)O2 (stereo not drawn)	90	–
CCc1ccc(O)c(O)c1	99	8.69
